Experiment in all cases: NCI tumour cell line growth inhibition, 48 h
The subject of test [1] is NCI-H460 lung.
The test system of test [2] is RPMI-8226 leukemia.
The test system of test [3] is SF-295 CNS.
The subject of test [4] is DU-145 prostate.
In test [5] the test system is U251 CNS.
The subject of test [6] is NCI/ADR-RES ovarian.
Test [7] relates to M14 melanoma.
Test [8] concerns CCRF-CEM leukemia.
Test [9] deals with SK-OV-3 ovarian.
The subject of test [10] is OVCAR-5 ovarian.

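Grown in 96-well plates, cells were treated for 48 hours with each compound at five concentrations. Insufficient inhibition: endpoint recorded as highest concentration tested. Abbreviation: GI50, concentration required for 50% inhibition of growth. TGI is the concentration that stops growth completely.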

As to `COC(=O)C1OC(O[C@H]2CC[C@]3(C)[C@H]4CC=C5[C@@H]6CC(C)(C)CC[C@]6(C(=O)OC6OCC(O)C(O)C6OC6OC(C)C(OC7OCC(OC8OCC(O)C(O)C8O)C(O)C7O)C(O)C6O)[C@H](O)C[C@@]5(C)[C@]4(C)CC[C@H]3C2(C)C)C(O)C(O)C1O` (stereo not given in full), the TGI in test [1] was 32.5 µM; in [2], over 50.7 µM; in test [3], 8.66 µM; in [4], 16.9 µM; in [5], 18.2 µM; in test [6], 21.1 µM. Also, the TGI in test [7] is 3.56 µM; in test [8], over 100 µM; in [9], 28.1 µM; in test [10], 8.01 µM.
As for `Cc1cc2c(nn1)-c1ccccc1C2=O`, the TGI in [1], in test [2], in test [3], in [4], in test [5] and in test [6] was over 10 µM each time. The TGI in test [7], in test [8], in test [9] and in test [10] was over 10 µM each time.
On to `OCC(O)C(O)C(O)/C=N/Nc1nc(O)c(/C=C2\C=Nc3ccccc32)[nH]1` (stereo not given), for which the TGI in test [1], in [2], in test [3], in test [4], in [5] and in [6] was over 100 µM in each case. For the same compound, the TGI in [7], in [8], in test [9] and in test [10] was over 100 µM in each case.
On to `COc1ccccc1N1CCN(CCCNC(=O)c2cc(Cl)c(N)c(Cl)c2)CC1`, for which the TGI in test [1] was over 100 µM; in [2], 54.5 µM; in test [3], 34.1 µM; in test [4], over 100 µM; in [5] it was over 100 µM; in [6] it was over 100 µM. The TGI was 53.1 µM in test [7], over 100 µM in test [8], over 100 µM in [9] and over 100 µM in test [10].
As for `COC(=O)C1=C(C)NC(C)=C([N+](=O)[O-])C1c1cccc(N=O)c1` (stereo not given), the TGI is 31.1 µM in test [1]; over 100 µM in test [2]; 51.5 µM in test [3]; 28.7 µM in [4]; 32 µM in test [5]; 45.9 µM in test [6]. In addition, the TGI in test [7] is 25.8 µM; in [8], over 100 µM; in [9], 46.6 µM; in test [10], 30.5 µM.
Take `COc1ccc(-c2csc(NC(=O)CSc3nc(C)c(-c4ccccc4)n3Nc3ccccc3)n2)cc1`: the GI50 in test [1] was 7.41 µM; in test [2], 6.74 µM; in [3], 0.566 µM; in test [4], 18 µM; in test [5] it was over 100 µM; in test [6] it was 4.21 µM. Also, the GI50 is 8.66 µM in [7], 3.92 µM in [8], over 100 µM in test [9] and over 100 µM in test [10]. Besides, the TGI in test [1], in test [2], in test [3], in test [4], in test [5] and in [6] was over 100 µM in each case. The TGI in [7], in test [8], in test [9] and in [10] was over 100 µM each time.
As to `COC(=O)C1(Cc2ccc3c(c2)CCC3)Cc2ccccc2C1=O` (stereo not given), the TGI was 93.6 µM in [1]; 58.7 µM in test [2]; 67.4 µM in test [3]; 67.8 µM in test [4]; 37.2 µM in [5]; over 100 µM in test [6]. The TGI is 32.4 µM in test [7], 67.2 µM in [8], 85.8 µM in test [9] and over 100 µM in [10].
For the compound `CCN(CC)CCNc1ccc2ncn3c4cc(OC)c(OC)c(=O)c4c(O)c1c23`, the TGI was found to be 15.6 µM in [1]; 20.2 µM in [2]; 23.6 µM in [3]; 23.5 µM in [4]; 28 µM in test [5]; 41.8 µM in test [6]. Besides, the TGI in test [7] came out at 30.3 µM; in test [8], 53.1 µM; in test [9], 28.8 µM; in [10], 45.4 µM.
With `NS(=O)(=O)c1ccc(NC(NC(=O)C(C(F)(F)F)C(F)(F)F)(C(F)(F)F)C(F)(F)F)cc1`, the TGI in test [1], in [2], in [3], in [4], in test [5] and in test [6] was over 100 µM each time. The TGI in test [7], in test [8], in test [9] and in test [10] was over 100 µM each time.
`CC12CC1C(c1cccc([N+](=O)[O-])c1)(c1cccc([N+](=O)[O-])c1)N=N2` (stereo not given): the TGI in [1] is over 100 µM; in [2], 35.9 µM; in test [3], over 100 µM; in test [4], over 100 µM; in test [5] it was 51 µM; in test [6] it was 59.3 µM. In addition, the TGI in test [7] is over 100 µM; in test [8], 43.9 µM; in test [9], over 100 µM; in test [10], over 100 µM.
Turning to `Cc1cc(/N=C/c2ccc(C#N)cc2)n(-c2ccccc2)n1`, the TGI in [1], in test [2], in [3], in test [4], in test [5] and in test [6] was over 100 µM in each case. Moreover, the TGI in test [7], in test [8], in test [9] and in [10] was over 100 µM each time.
Turning to `N#CCCN(CCC#N)c1ccc(/C=C2\SC(=S)NC2=O)cc1Br`, the TGI in test [1] is over 100 µM; in [2], over 100 µM; in test [3] it was over 100 µM; in [4], over 100 µM; in [5] it was 35.1 µM; in test [6], over 100 µM. Also, the TGI in test [7], in test [8], in [9] and in [10] was over 100 µM in each case.

The record behind these values is PubChem BioAssay (NCI).
